Data set [1] concerns papillary muscle of guinea-pig. The data set is described as follows: Myocardial contractility (developed tension) in isolated papillary muscle of guinea-pig. Conditions: applied cumulatively 10, 30 and 100 μM; n=5; FIG. 1. As for the experimental part: The direct effect of pralmorelin on myocardial contractility was evaluated using the isolated cardiac muscle of guinea-pigs according to the standard method for evaluating myocardial contractility.
Male Hartley guinea-pigs (body weight, 301-350 g; Japan SLC) were purchased. The animals were accommodated to an environment at a temperature of 23±2° C. and a humidity of 55±15% under 12-hr light/dark cycles while they were allowed to eat and drink water ad libitum until they weighed 360-480 g. Each test substance was tested on a group of five animals.
The test substances were pralmorelin dihydrochloride (KP-102), representatives of growth hormone secretagogues such as hexarelin, ghrelin and ibutamorelin methanesulfonate (the last being hereunder referred to as MK-0677) (which were prepared by the method described in JP 6-263737 A (kokai)), as well as a recombinant human growth hormone (Sumitomo Pharmaceutical) and amrinone (Sigma) which is a known therapeutic of acute heart failure. KP-102, hexarelin and MK-0677 were dissolved in distilled water. Ghrelin was dissolved in physiological saline. Amrinone was first dissolved in dimethyl sulfoxide and then diluted with physiological saline. The growth hormone was dissolved in a dedicated solubilizer (0.3 w/v % metacresol and 3.9 w/v % D-mannitol). None of the test substance solutions should be added in an amount exceeding 1 w/v %. All reagents other than the test substances were guaranteed products of Nacalai Tesque.
The guinea-pigs were stunned with a blow to the back of their head; thereafter, the carotid artery was incised and the animals were exsanguinated to death. The chest was opened, the blood vessels in the upper part of the heart were cut and the heart was removed. The heart was immediately transferred into a Krebs-Henseleit (K-H) nutrient solution (NaCl, 118.0 mM; KCl, 4.7 mM; CaCl2. 2H2O, 1.0 mM; KH2PO4, 1.2 mM; MgSO4.7H2O, 1.2 mM; NaHCO3, 25.0 mM; glucose, 11.0 mM) that had been fully aerated with 95% O2-5% CO2. The heart was fixed on a rubber-lined Petri dish with needles such that its front face was seen. The ventricular wall of the upper right ventricle (toward the atrium) was excised transversely along the atrium, then excised longitudinally along the interventricular septum so that the ventricular wall was opened to expose the right ventricular papillary muscle. Subsequently, the entire surface of the left ventricle was cut open from the aorta (down) to the apex and the anterior wall of the left ventricle was opened wide, to both right and left, and fixed to expose the papillary muscle of the left ventricle. The tricupsid or mitral valve was cut off from the ventricle and the papillary muscle was cut off at the base to prepare a specimen of papillary muscle. The base of the specimen was fixed to field stimulating electrodes in an organ bath filled with 15 mL of the nutrient solution. The tendinous cord adhering to the valve was tied up with a thread and connected to an FD pickup (TB-612T, Nihon Kohden). A resting tension of 0.5 g was loaded and the papillary muscle was driven with an electric stimulator (SEN-3201, Nihon Kohden) at a frequency of 1 Hz by pulses of 20-ms duration and at a voltage intensity about 1.2 times the threshold. After an equilibration period of about 1 hr, KP-102, hexarelin and amrinone were each applied cumulatively up to amounts of 10, 30 and 100 μM. After examination of the changes in inotropic action due to the application of the test substances, 12.5 mM of CaCl2 was added and the maximum tension that was developed by each specimen was obtained. The developed tension was recorded with a multi-purpose preamplifier (RMP-6008, Nihon Kohden) and a recorder (WT-647G, Nihon Kohden).
Each result was expressed by mean ± standard error. […]

Data set [2] relates to anesthetized open-chest rabbits. The data set is described as follows: Cardiac function of anesthetized open-chest rabbit after intravenous administration. It is filed as in vivo. On the procedure:
The effects of pralmorelin on cardiac function were evaluated by measuring various parameters [blood pressure, heart rate, systolic left ventricular pressure (LVPsys), and maximal positive dP/dt (+dP/dtmax) obtained by differentiating the waveform of left ventricular pressure (LVP)]. The value of the maximal positive dP/dt for the left ventricular pressure (+dP/dtmax) is particularly important to determine if the cardiotonic action is sufficient to treat acute heart failure.
Pralmorelin dihydrochloride (hereunder referred to as KP-102) (prepared by the method described in WO 9304081) was dissolved in distilled water for injection to prepare a 1.5 mg/mL solution.
Male NZW-strain rabbits (Kitayama Labes) weighing about 2 kg were used in the experiment. After arrival, the animals were allowed to eat a solid meal (Labo R Stock, Oriental Yeast Co., Ltd.) and drink water in a room at a temperature of 20±2° C. and at a humidity of 55±15% under 12-hr light/ dark cycles (from 7:00 to 19:00); the animals were kept under these conditions for at least 6 days before use.
Rabbits were anesthetized by administering 30 mg/kg of sodium pentobarbital into the auricular vein at a slow speed with attention to their breathing. The animals were then fixed in supine position and an endotracheal cannula was inserted. Under artificial respiration (tidal volume, 25 mL/breath; ventilation frequency, 45 breaths/min: SN-480-7 of Shinano Seisakusyo), the chest of each animal was opened by midline incision and the pericardium was incised to expose the heart. The left ventricular pressure (LVP) was measured with a pressure transducer (TP-300T, Nihon Kohden) and a pressure amplifier (AG-610G, Nihon Kohden) as a cannula with syringe was inserted from the cardiac apex into the left ventricle. The waveform of LVP was differentiated with a differentiator unit (ED-601, Nihon Kohden) to determine the maximal positive dP/dt(+dP/dtmax), which was used as an index for cardiac contractility. Blood pressure was measured with a pressure amplifier (AP-610G, Nihon Kohden) via a pressure transducer (TP-300T, Nihon Kohden) connected to a cannula inserted into the left femoral artery. Heart rate was measured with a cardiotachometer (AT-601G, Nihon Kohden) that was driven by counting the pulse waves of LVP. The parameters mentioned above were recorded on a recorder (TA-11, Gould). A cannula was inserted into the left femoral vein so as to assist in the administration of the test substance. The rectum temperature of each animal was controlled at 39° C. with a body temperature controller (TK-43, Asahi Denshi). The anesthetic was added as required but additional anesthetization should be avoided during the measurements.
After each parameter stabilized, distilled water (0.2 mL/kg) was administered over one minute with an infusion pump (FP-W-100, Toyo Sangyo K.K.) and observations were made for 5 minutes after the administration to see whether the vehicle would have no effect. About 5 minutes after the administration of distilled water, the test substance was administered with an infusion pump in a volume of 0.2 mL/kg over one minute according to the grouping method specified above. Each hemodynamic parameter was measured both before administration and 1, 3, 5, 10, 15, 20 and 25 minutes after administration and the percent changes from the basal values were calculated. In some animals, measurement was conducted until 40 minutes after the administration of the test substance.
The results were each expressed by mean ± standard deviation. Any difference between groups was tested by repeated measures ANOVA (analysis of variance); The significance level was set at 5%.

[3] abbreviates: 300 μg/kg intravenously over one minute, n=4.

SMILES strings stand for the structures. Where a SMILES comes first, the peptide text is derived from it. [ ]: non-standard residue; d: D form. d2Nal = N[C@H](Cc1ccc2ccccc2c1)C(=O)O

`C[C@H](NC(=O)[C@@H](Cc1ccc2ccccc2c1)NC(=O)[C@@H](C)N)C(=O)N[C@@H](Cc1c[nH]c2ccccc12)C(=O)N[C@H](Cc1ccccc1)C(=O)N[C@@H](CCCCN)C(N)=O` [KP-102, D-alanyl-3-(naphthalen-2-yl)-D-alanyl-L-alanyl-L-tryptophyl-D-phenylalanyl-L-lysinamide] (H-[dA][d2Nal]AW[dF]K-NH2): in data set [1], the “tension development (positive inotropic action) vs baseline” value is “significant effect over the baseline value”. Also, in data set [2] (300 μg/kg intravenously), the “onset of cardiotonic action (LVPsys, +dP/dtmax) after administration” value is on record as “beginning one minute after the administration”; the “overall effect on heart rate” value is on record as “little affected”; the “time of peak of cardiotonic action after administration” value is 5 to 10 min; the “time until blood pressure baseline value practically restored” value was approximately 25 min. In data set [2] (setting [3]), the “maximum increase in +dP/dtmax, of the baseline value” was determined as 22% and the “maximum increase in LVPsys, of the baseline value” was 13%. Besides, in data set [2] (300 μg/kg intravenously, 3 minutes after administration), the “heart rate drop from baseline” value is 2%. Also, the “heart rate increase from baseline” value in data set [2] (300 μg/kg intravenously, 15 minutes after administration) came to 1%. Further, the “heart rate increase from baseline” value in data set [2] (300 μg/kg intravenously, 25 minutes after administration) was found to be 2%. Further, the “time until baseline values (LVPsys, +dP/dtmax) restored” value in data set [2] (300 μg/kg intravenously, one case with extended monitoring) is not above 40 min. Also, in data set [2] (300 μg/kg intravenously, p<0.05), the “mean blood pressure change vs control group” value is listed as “significant rise of blood pressure”.

These data come from patent US20040014671A1, “Preventives or remedies for heart failure” (priority 2000, published 2004).
